Measurements from US20220396567A1, “SUBSTITUTED PYRIMIDINE FOR THE TREATMENT AND PROPHYLAXIS OF HEPATITIS B VIRUS INFECTION” (Hoffmann-La Roche Inc., priority 2019, published 2022).

Test system: HBV
Assay: Cryopreserved primary human hepatocytes (PHH) HBV infection assay, extracellular HBsAg by CLIA
Format: cell-based
Details: Hepatitis B virus, Hepatocyte, 216 h; HBV-infected cryopreserved PHH; extracellular HBsAg at 9 days post-compound treatment; 4 parameter logistic curve fit
Procedure: This assay is used to confirm the anti-HBV effect of the compounds in HBV PHH infection assay. Cryopreserved PHH (BioreclamationIVT, Lot YJM) was thawed at 37° C. and gently transferred into pre-warmed InVitroGRO HT medium (BioreclamationIVT, Cat. S03317). The mixture was centrifuged at 70 relative centrifugal force (RCF) for 3 min at RT, and the supernatant was discarded. Pre-warmed InVitroGRO CP medium (BioreclamationIVT, Cat #S03316) was added to the cell pellet to gently re-suspend cells. The cells were seeded at the density of 5.8×10^4 cells per well to collagen I coated 96-well plate (Gibco, Cat. A1142803) with the InVitroGRO CP medium. All plates were incubated at 37° C. with 5% CO2 and 85% humidity.
At 20 hrs after plating, the medium was changed to PHH culture medium (Dulbecco's Modified Eagle Medium (DMEM)/F12 (1:1) (Gibco, Cat. 11320-033), 10% fetal bovine serum (Gibco Cat. 10099141), 100 U/mL penicillin, 100 μg/mL streptomycin (Gibco, Cat. 151401-122), […] (Invitrogen Cat. PHG0311L), 20 ng/mL dexamethasone (Sigma, Cat. D4902) and 250 ng/mL human recombinant insulin (Gibco, Cat. 12585-014)). And the cells were incubated at 37° C. with 5% CO2 and 85% humidity for 4 hrs. The medium was then changed to pre-warmed PHH culture medium containing 4% polyethylene glycol (PEG) MW8000 (Sigma, Cat. P1458-50 ML) and 1% DMSO (Sigma, Cat. D2650). 5.8×10^6 genomic equivalents of HBV were added into the medium.
At 24 hrs post-infection, the cells were gently washed with PBS and refreshed with PHH culture medium supplemented with 1% DMSO, and 0.25 mg/mL Matrix gel (Corning, Cat. 356237) at 200 μL per well. All plates were immediately placed in at 37° C. CO2 incubator.
24 hrs later, serial dilutions of compounds made with DMSO were further diluted with the same culture medium (PHH culture medium supplemented with 1% DMSO and 0.25 mg/mL Matrix gel as described above) before they were added to the cells to reach desired final compound concentrations and 1% DMSO concentration. The medium containing the compounds were refreshed every three days.
At 9 days post-compound treatment, extracellular HBsAg level were measured with Chemiluminescence Immuno Assay (CLIA) kit (Autobio, HBsAg Quantitative CLIA).
HBsAg IC50 was derived from the dose-response curve using 4 parameter logistic curve fit method. The compounds of formula (I) have HBsAg IC50<20 μM, particularly <1 μM.

Row | Compound | IC50 [µM]
1 | COCCNc1nc(NCc2cccc(Cl)c2)c(C(=O)O)c(-c2ccco2)n1 [Example 59, 4-[(3-chlorophenyl)methylamino]-6-(2-furyl)-2-(2-methoxyethylamino)pyrimidine-5-carboxylic Acid] | 3.71
2 | CS(=O)(=O)c1ccccc1C1(Nc2nc(N)nc(-c3ccco3)c2C#N)CC1 [Example 7, 2-amino-4-(2-furyl)-6-[[1-(2-methylsulfonylphenyl)cyclopropyl]amino]pyrimidine-5-carbonitrile] | 1.78
3 | COc1cccc(CN(C)c2nc(N)nc(-c3ccco3)c2C#N)c1 [Example 6] | 10.1
4 | COCCNc1nc(NCc2cccc(C(F)(F)F)c2)c(C#N)c(-c2ccco2)n1 [Example 12, 4-(2-furyl)-2-(2-methoxyethylamino)-6-[[3-(trifluoromethyl)phenyl]methylamino]pyrimidine-5-carbonitrile] | 3.89
5 | CC1(C)CC(CNc2nc(N)nc(-c3ccco3)c2C#N)CC(C)(C)O1 [Example 3, 2-amino-4-(2-furyl)-6-[(2,2,6,6-tetramethyltetrahydropyran-4-yl)methylamino]pyrimidine-5-carbonitrile] | 1.67
6 | COCCNc1nc(NC2(c3cccc(C(F)(F)F)c3)CC2)c(C(=O)O)c(-c2ccco2)n1 [Example 58, 4-(2-furyl)-2-(2-methoxyethylamino)-6-[[1-[3-(trifluoromethyl)phenyl]cyclopropyl]amino]pyrimidine-5-carboxylic Acid] | 5.96
7 | CSc1nc(NCc2cccc(C(F)(F)F)c2)c(C#N)c(-c2ccco2)n1 [Example 11, 4-(2-furyl)-2-methylsulfanyl-6-[[3-(trifluoromethyl)phenyl]methylamino]pyrimidine-5-carbonitrile] | 2.35
8 | N#Cc1c(NCc2ccccc2Cl)ncnc1-c1ccco1 [Example 24, 4-[(2-chlorophenyl)methylamino]-6-(2-furyl)pyrimidine-5-carbonitrile] | 3.07
9 | CC(Nc1nc(N)nc(-c2ccco2)c1C#N)c1cccc(C(F)(F)F)c1 (stereo not drawn) [Example 5, 2-amino-4-(2-furyl)-6-[1-[3-(trifluoromethyl)phenyl]ethylamino]pyrimidine-5-carbonitrile] | 0.47
10 | N#Cc1c(NCc2cccc(C(F)(F)F)c2)nc(NCC(F)(F)F)nc1-c1ccco1 [Example 13, 4-(2-furyl)-2-(2,2,2-trifluoroethylamino)-6-[[3-(trifluoromethyl)phenyl]methylamino]pyrimidine-5-carbonitrile] | 3.93
11 | CC(C)CNc1nc(NCc2cccc(C(F)(F)F)c2)c(C(=O)O)c(-c2ccco2)n1 [Example 50, 4-(2-furyl)-2-(isobutylamino)-6-[[3-(trifluoromethyl)phenyl]methylamino]pyrimidine-5-carboxylic Acid] | 8.62
12 | N#Cc1c(NC2CCCC2)nc(N)nc1-c1ccco1 [Example 9, 2-amino-4-(cyclopentylamino)-6-(2-furyl)pyrimidine-5-carbonitrile] | 8.68
13 | COc1nc(NC(C)c2cccc(C(F)(F)F)c2)cc(-c2ccco2)n1 (stereo not drawn) [Example 34, 6-(2-furyl)-2-methoxy-N-[1-[3-(trifluoromethyl)phenyl]ethyl]pyrimidin-4-amine] | 3.49
14 | Nc1nc(NCc2cccc(C(F)(F)F)c2)c(C(=O)N2CCCCC2)c(-c2ccco2)n1 [Example 54, [2-amino-4-(2-furyl)-6-[[3-(trifluoromethyl)phenyl]methylamino]pyrimidin-5-yl]-(1-piperidyl)methanone] | 6.59
15 | COc1ccccc1CNc1nc(N)nc(-c2ccco2)c1C(=O)O [Example 40, 2-amino-4-(2-furyl)-6-[(2-methoxyphenyl)methylamino]pyrimidine-5-carboxylic Acid] | 6.67
16 | CC(C)(C)OC(=O)N1CCN(C(=O)c2c(NCc3cccc(C(F)(F)F)c3)nc(N)nc2-c2ccco2)CC1 [Example 56, tert-butyl4-[2-amino-4-(2-furyl)-6-[[3-(trifluoromethyl)phenyl]methylamino]pyrimidine-5-carbonyl]piperazine-1-carboxylate] | 9.66
17 | CN(C)c1nc(NCC2CCCC2)c(C(=O)O)c(-c2ccco2)n1 [Example 43, 4-(cyclopentylmethylamino)-2-(dimethylamino)-6-(2-furyl)pyrimidine-5-carboxylic Acid] | 5.55

Row | Compound | IC50 [µM]
18 | Nc1nc(NCc2ccc(Cl)cc2)c(C(=O)O)c(-c2ccco2)n1 [Example 37, 2-amino-4-[(4-chlorophenyl)methylamino]-6-(2-furyl)pyrimidine-5-carboxylic Acid] | 2.93
19 | N#Cc1c(NCC2CCCC2)ncnc1-c1ccco1 [Example 29, 4-(cyclopentylmethylamino)-6-(2-furyl)pyrimidine-5-carbonitrile] | 2.61
20 | CCOC(=O)c1c(NCc2cccc(C(F)(F)F)c2)nc(NCC(C)C)nc1-c1ccco1 [Example 49, Ethyl 4-(2-furyl)-2-(isobutylamino)-6-[[3-(trifluoromethyl)phenyl]methylamino]pyrimidine-5-carboxylate] | 5.35
21 | CC(Nc1nc(N)nc(-c2ccco2)c1C#N)c1ccccc1 (stereo not drawn) [Example 1, 2-amino-4-(2-furyl)-6-(1-phenylethylamino)pyrimidine-5-carbonitrile] | 5.93
22 | CCOC(=O)c1c(NCc2cccc(C(F)(F)F)c2)nc(N2CC3(CCC3)C2)nc1-c1ccco1 [Example 47, Ethyl 2-(2-azaspiro[3.3]heptan-2-yl)-4-(2-furyl)-6-[[3-(trifluoromethyl)phenyl]methylamino]pyrimidine-5-carboxylate] | 3.26
23 | CCOc1nc(NCc2cccc(C(F)(F)F)c2)c(C#N)c(-c2ccco2)n1 [Example 18, 2-ethoxy-4-(2-furyl)-6-[[3-(trifluoromethyl)phenyl]methylamino]pyrimidine-5-carbonitrile] | 6.02
24 | COCCNc1nc(NCc2cccc(C(F)(F)F)c2)c(C(=O)O)c(-c2ccco2)n1 [Example 46, 4-(2-furyl)-2-(2-methoxyethylamino)-6-[[3-(trifluoromethyl)phenyl]methylamino]pyrimidine-5-carboxylic Acid] | 4.31
25 | Cc1ccccc1CNc1nc(N)nc(-c2ccco2)c1C(=O)O [Example 39, 2-amino-4-(2-furyl)-6-(o-tolylmethylamino)pyrimidine-5-carboxylic Acid] | 9.07
26 | CCNc1nc(NC2(c3cccc(C(F)(F)F)c3)CC2)c(C(=O)O)c(-c2ccco2)n1 [Example 60, 2-(ethylamino)-4-(2-furyl)-6-[[1-[3-(trifluoromethyl)phenyl]cyclopropyl]amino]pyrimidine-5-carboxylic Acid] | 6.5
27 | COCCCNc1nc(NCc2cccc(C(F)(F)F)c2)c(C(=O)O)c(-c2ccco2)n1 [Example 51, 4-(2-furyl)-2-(3-methoxypropylamino)-6-[[3-(trifluoromethyl)phenyl]methylamino]pyrimidine-5-carboxylic Acid] | 9.61
28 | Nc1nc(NCc2cccc(C(F)(F)F)c2)c(C(=O)N2CCCC2)c(-c2ccco2)n1 [Example 53, [2-amino-4-(2-furyl)-6-[[3-(trifluoromethyl)phenyl]methylamino]pyrimidin-5-yl]-pyrrolidin-1-yl-methanone] | 9.25
29 | CC(Nc1cc(-c2ccco2)nc(N(C)C)n1)c1cccc(C(F)(F)F)c1 (stereo not drawn) [Example 32, 6-(2-furyl)-N2,N2-dimethyl-N4-[1-[3-(trifluoromethyl)phenyl]ethyl]pyrimidine-2,4-diamine] | 3.49
30 | Nc1nc(NCc2cccc(C(F)(F)F)c2)c(C(=O)N2CCC2)c(-c2ccco2)n1 [Example 52, [2-amino-4-(2-furyl)-6-[[3-(trifluoromethyl)phenyl]methylamino]pyrimidin-5-yl]-(azetidin-1-yl)methanone] | 7.94
31 | Nc1nc(NCC2CCCC2)c(C(=O)O)c(-c2ccco2)n1 [Example 41, 2-amino-4-(cyclopentylmethylamino)-6-(2-furyl)pyrimidine-5-carboxylic acid] | 3.24
32 | CCCNc1nc(NCc2cccc(C(F)(F)F)c2)c(C#N)c(-c2ccco2)n1 [Example 15, 4-(2-furyl)-2-(propylamino)-6-[[3-(trifluoromethyl)phenyl]methylamino]pyrimidine-5-carbonitrile] | 3.01
33 | N#Cc1c(NCC2CCC(F)(F)C2)nc(N)nc1-c1ccco1 (stereo not drawn) [Example 8, 2-amino-4-[(3,3-difluorocyclopentyl)methylamino]-6-(2-furyl)pyrimidine-5-carbonitrile] | 10.2
